Data reported in paper PMC10690437 (Nature immunology, 2023).

Test system: HLA-E
Assay: HLA-E expression on PBMCs after IFNγ treatment
Format: cell-based, human
Conditions: PBMCs cultured with 5 ng ml^−1 IFNγ for 2 days; 3D12 flow cytometry

## IFNγ: interferon-γ (BioLegend, PeproTech)
  HLA-E surface expression on peripheral blood cells: increase in HLA-E surface expression
